Experimental data reported in PMC7667546 (Iranian Journal of Pharmaceutical Research : IJPR, 2020).
≈ marks a conversion by molar mass, not a printed value. Where “and” joins values, the source holds several entries; their conditions need not be identical. Identical values can stand only once. Counter-ions that a name gives are not always drawn. Like-named read-outs stand apart in the source and are kept apart here.

Columns and labels:
[1] = molecular target: T1, acetylcholinesterase (AChE) (Homo sapiens, UniProt P22303); assay: biochemical; conditions: for inhibition at 10 µg/mL: read-out: Inhibition (%) AChE
T1 construct: purchased Sigma-Aldrich (Steinheim, Germany)
Protocol: (§1) Details of all biological activity and molecular modeling studies are given as supplementary material. The enzyme activities of the extracts were studied by observing urease, tyrosinase acetyl- and butyryl-cholinesterase inhibition activities ([22]-[25]). The ligands were then applied with partial atomic charges derived by ﬁtting Antechamber obtained by electronic structure calculation module in AMBER and assigned the AM1-BCC charges ([26]-[29]).
(§2) All compounds were assayed in-vitro against AChE and BChE at 100-0.1 µg/mL.

[2] = tested on: tyrosinase; assay: Tyrosinase inhibition in vitro; format: biochemical, mushroom; conditions: N.A. = not active; for Inhibition (%) Tyrosinase: 10µg/mL, mean ± S.D. of three measurements; for Equivalent Tyrosinase (µg kojic acid activity/mg compound): mean ± S.D.
Text: as §1

[3] = molecular target: T2, butyrylcholinesterase (BChE) (Homo sapiens, UniProt P06276); assay: Butyrylcholinesterase inhibition in vitro; format: biochemical; conditions: for IC50: assayed at 100-0.1 µg/mL, mean ± S.D.; for inhibition at 10 µg/mL: read-out: Inhibition (%) BChE
T2 construct: purchased Sigma-Aldrich (Steinheim, Germany)
Protocol: as §1, §2

[4] = molecular target: T3, urease (Canavalia ensiformis, UniProt P07374); assay: biochemical; design: species or system Canavalia ensiformis (Jack bean); conditions: N.A. = not active; for Equivalent Urease (µg thiourea activity/mg compound): mean ± S.D.; for inhibition at 10 µg/mL: read-out: Inhibition (%) Urease, 10µg/mL; for inhibition at 10 µg/mL / Inhibition (%) Urease: mean ± S.D. of three measurements; for Inhibition (%) Urease: 10µg/mL
T3 construct: purchased Sigma (Germany) Type III, powder, 15,000-50,000 units/g solid
Text: as §1

[5] = tested on: BChE; design: method as in Senol et al (2017); conditions: ref Senol et al (2017); cited from earlier work
[6] = tested on: BChE; design: method as in Ramirez et al. ([39]); conditions: ref Ramirez et al. ([39]); read-out: IC50 against BChE; cited from earlier work
[7] = 10µg/mL, mean ± S.D. of three measurements, N.A. = not active
[8] = assayed at 100-0.1 µg/mL, mean ± S.D., N.A. = not active, read-out: IC50 AChE (converted)
[9] = read-out: IC50 BChE (converted)

T3 sequence (P07374 whole entry, looked up): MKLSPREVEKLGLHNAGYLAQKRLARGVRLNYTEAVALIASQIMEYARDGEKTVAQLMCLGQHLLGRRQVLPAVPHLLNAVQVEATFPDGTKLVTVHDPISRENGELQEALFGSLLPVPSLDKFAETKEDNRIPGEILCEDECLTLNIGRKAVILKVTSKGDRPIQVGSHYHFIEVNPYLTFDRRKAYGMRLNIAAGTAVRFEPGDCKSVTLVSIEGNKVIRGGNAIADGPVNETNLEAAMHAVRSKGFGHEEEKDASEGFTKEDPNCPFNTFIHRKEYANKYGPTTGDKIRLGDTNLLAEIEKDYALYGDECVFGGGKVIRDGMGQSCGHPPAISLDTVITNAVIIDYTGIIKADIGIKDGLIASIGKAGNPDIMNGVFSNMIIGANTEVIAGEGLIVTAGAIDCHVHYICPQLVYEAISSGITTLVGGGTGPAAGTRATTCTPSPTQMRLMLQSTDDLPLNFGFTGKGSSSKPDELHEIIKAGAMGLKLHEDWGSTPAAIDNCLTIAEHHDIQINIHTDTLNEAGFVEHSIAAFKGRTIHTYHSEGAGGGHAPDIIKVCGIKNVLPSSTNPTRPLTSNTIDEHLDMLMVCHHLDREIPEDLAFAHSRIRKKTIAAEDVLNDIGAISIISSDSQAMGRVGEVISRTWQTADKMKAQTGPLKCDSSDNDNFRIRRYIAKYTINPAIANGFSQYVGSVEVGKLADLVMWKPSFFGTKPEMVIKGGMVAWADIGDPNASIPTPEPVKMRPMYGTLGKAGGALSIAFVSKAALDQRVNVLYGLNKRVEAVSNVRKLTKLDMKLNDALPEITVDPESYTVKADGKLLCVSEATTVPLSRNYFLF
T1 sequence (P22303 32-614, species assumed): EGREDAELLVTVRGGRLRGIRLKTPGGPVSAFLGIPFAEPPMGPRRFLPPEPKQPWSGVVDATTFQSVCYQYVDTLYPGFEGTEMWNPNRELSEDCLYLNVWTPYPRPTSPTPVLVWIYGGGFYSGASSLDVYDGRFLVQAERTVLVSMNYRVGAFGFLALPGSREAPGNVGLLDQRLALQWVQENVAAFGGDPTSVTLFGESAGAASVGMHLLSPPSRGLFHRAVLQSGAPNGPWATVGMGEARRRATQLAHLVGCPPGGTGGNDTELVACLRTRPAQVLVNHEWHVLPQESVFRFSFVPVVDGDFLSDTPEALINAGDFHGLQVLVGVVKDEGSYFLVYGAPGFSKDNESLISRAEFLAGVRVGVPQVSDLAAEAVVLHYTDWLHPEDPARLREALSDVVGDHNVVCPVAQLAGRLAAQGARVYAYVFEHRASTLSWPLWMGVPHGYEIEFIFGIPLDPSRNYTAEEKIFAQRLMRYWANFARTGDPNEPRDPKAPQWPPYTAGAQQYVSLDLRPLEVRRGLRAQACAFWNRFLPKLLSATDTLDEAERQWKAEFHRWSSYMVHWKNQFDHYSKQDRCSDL
T2 sequence (P06276 29-602): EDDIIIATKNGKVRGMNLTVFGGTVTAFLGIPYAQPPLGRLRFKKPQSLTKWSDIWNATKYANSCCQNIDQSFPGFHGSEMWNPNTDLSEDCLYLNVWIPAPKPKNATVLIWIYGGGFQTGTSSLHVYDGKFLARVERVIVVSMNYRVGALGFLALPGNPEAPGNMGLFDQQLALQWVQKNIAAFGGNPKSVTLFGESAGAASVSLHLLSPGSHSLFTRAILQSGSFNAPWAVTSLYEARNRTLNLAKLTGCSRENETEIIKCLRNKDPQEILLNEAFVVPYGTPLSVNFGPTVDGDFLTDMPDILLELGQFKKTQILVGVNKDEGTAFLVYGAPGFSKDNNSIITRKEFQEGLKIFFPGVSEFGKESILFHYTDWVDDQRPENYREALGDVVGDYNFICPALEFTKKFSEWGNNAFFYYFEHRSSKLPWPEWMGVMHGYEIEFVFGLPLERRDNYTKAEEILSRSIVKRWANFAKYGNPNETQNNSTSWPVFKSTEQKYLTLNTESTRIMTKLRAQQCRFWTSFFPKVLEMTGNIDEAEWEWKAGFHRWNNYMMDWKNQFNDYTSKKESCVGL

| SMILES | inhibition at 10 µg/mL [1, 7] [%] | IC50 [1, 8] [µM] | Inhibition (%) Tyrosinase [2] [%] | IC50 ([3]; IC50 BChE) [µM] | inhibition at 10 µg/mL [3] [%] | Equivalent Urease (µg thiourea activity/mg compound) [4] | inhibition at 10 µg/mL [4] [%] | IC50 [1] [µM] | further results |
| --- | --- | --- | --- | --- | --- | --- | --- | --- | --- |
| CC(C)c1cc2c(c(O)c1O)[C@@]1(C(=O)O)CCCC(C)(C)[C@@H]1CC2 [Compound 8, Carnosic Acid] | 38 ± 0.96 | 95.7 | 5.92±0.06 | 12.4 | 58.5 ± 1.18 | 62.12±0.07 µg thiourea activity/mg compou | 22.42 ± 0.15 | – | Equivalent Tyrosinase (µg kojic acid activity/mg compound) [2]: 45.93±0.71 µg kojic acid activity/mg compound |
| C[C@H]1COC2=C1C(=O)C(=O)c1c2ccc2c1CCCC2(C)C [Compound 10, Cryptotanshinone] | – | – | – | 95.9 | 35.16 ± 0.27 | 103.05±0.11 µg thiourea activity/mg compou | 29.7 ± 1.16 | > 337 | inhibition at 10 µg/mL [1]: 17.46 ± 0.11% |
| O=c1cc(CO)occ1O [Kojic acid, reference compound] | – | – | 69.07±0.38 | – | – | – | – | – | – |
| Cc1coc2c1C(=O)C(=O)c1c-2ccc2c1CCCC2(C)C [Compound 5, Tanshinone IIA] | – | > 340 | – | – | 66.3 ± 1.18 | 16.12±0.01 µg thiourea activity/mg compou | 14.3 ± 0.42 | – | inhibition at 10 µg/mL [1]: 32.3 ± 0.44%; IC50 [3, 9]: 3.8 µM |
| Cc1cccc2c3c(ccc12)C1=C(C(=O)C3=O)[C@@H](C)CO1 [Compound 6, Dihydrotanshinone I] | – | – | – | 1.8 | 87.19 ± 0.23 | – | – | 5.39 | inhibition at 10 µg/mL [1]: 64.54 ± 0.36%; IC50 value (BChE) [5]: 1.71 µg/mL (≈ 6.14 µM) |
| NC(N)=S [Thiourea, thiourea, reference compound] | – | – | – | – | – | – | – | – | Inhibition (%) Urease [4]: 75.14±1.34% |
| COc1ccc2c3c1O[C@H]1C[C@@H](O)C=C[C@@]31CCN(C)C2 [Galanthamine, galanthamine hydrobromide, reference compound] | – | – | – | – | 67.52 ± 0.41 | – | – | – | – |
| O=C(/C=C/c1ccc(O)c(O)c1/C=C/c1ccc(O)c(O)c1)O[C@H](Cc1ccc(O)c(O)c1)C(=O)O [Compound 4, Salvianolic acid A] | 38.82 ± 0.12 | – | – | 97.7 | – | – | – | 46.6 | inhibition at 10 µg/mL [3, 7]: 27.49 ± 0.08% |
| O=C(/C=C/c1ccc(O)c(O)c1)O[C@H](Cc1ccc(O)c(O)c1)C(=O)O [Compound 1, Rosmarinic acid] | 20.2 ± 0.21 | > 278 | 12.11±0.02 | 35.4 | 42.76 ± 0.32 | – | – | – | Equivalent Tyrosinase (µg kojic acid activity/mg compound) [2]: 105.58±0.18 µg kojic acid activity/mg compound |
| Cc1coc2c1C(=O)C(=O)c1c-2ccc2c(C)cccc12 [Compound 7, Tanshinone I] | – | – | 39.82±1.16 | 100 | 33 ± 0.86 | 174.73±0.19 µg thiourea activity/mg compou | 42.4 ± 0.85 | 138 | inhibition at 10 µg/mL [1]: 31.3 ± 0.72%; Equivalent Tyrosinase (µg kojic acid activity/mg compound) [2]: 372.86±2.47 µg kojic acid activity/mg compound |
| CC(C)c1cc2c(c(O)c1O)[C@@]13CCCC(C)(C)[C@@H]1C[C@@H]2OC3=O [Compound 9, Carnosol] | 47.6 ± 23 | 33.7 | – | – | – | 26.60±0.03 µg thiourea activity/mg compou | 16.1 ± 0.42 | – | inhibition at 10 µg/mL [3, 7]: 57.99 ± 0.15%; IC50 [3, 9]: 11.9 µM and 12.5 µM; IC50 [6]: 5.1 µM |
| O=C(/C=C/c1ccc(O)c2c1[C@H](C(=O)O[C@H](Cc1ccc(O)c(O)c1)C(=O)O)[C@@H](c1ccc(O)c(O)c1)O2)O[C@H](Cc1ccc(O)c(O)c1)C(=O)O [Compound 3, Salvianolic acid B] | 10.11 ± 0.08 | – | – | 14.6 | – | 192.26±0.21 µg thiourea activity/mg compou | 49.83 ± 0.27 | > 139 | inhibition at 10 µg/mL [3, 7]: 49.83 ± 0.27%; Inhibition (%) Urease [4]: 45.52±0.68% |
| COc1ccc(-c2cc(=O)c3c(O)c(OC)c(OC)cc3o2)cc1 [Compound 2, Salvigenin] | 22.72 ± 0.14 | > 305 | – | – | – | – | – | – | inhibition at 10 µg/mL [3, 7]: 43.13 ± 0.21%; IC50 [3, 9]: 34.9 µM |
| O=C(O)C(O)Cc1ccc(O)c(O)c1 (stereo not drawn) [Compound 11, Danshensu Salt] | – | – | 6.20±0.08 | 122 | 35.37 ± 0.13 | – | – | – | Equivalent Tyrosinase (µg kojic acid activity/mg compound) [2]: 48.67±0.23 µg kojic acid activity/mg compound |
